One substance from patent US20160109459A1, “Compositions And Methods For Heparan Sulfate As A Biomarker For Transplant Rejection” (Duke University, priority 2012, published 2016) can be followed below.

Assay [1] concerns purified T cells from C57BL/6 mice stimulated with bone marrow-derived BALB/c DCs. Nature of the assay: Allogeneic T cell proliferation assay (3H-thymidine incorporation, IFN-γ ELISA). The assay is classed as cell-based, mouse. As for the experimental part: Cells were co-cultured either alone (media) or in the presence of LPS (100 ng/mL), Pam3CSK4 (2 μg/mL), hyaluronan (HA) (100 μg/mL), sonicated-HA (sHA) (100 μg/mL), fibronectin (FN) (100 μg/mL), fibrinogen (Fbn) (100 μg/mL), heparan sulfate (HS) (100 μg/mL), HSP70 (5 μg/mL), HMGB1 (1 μg/mL), C12-iE-DAP (1 μg/mL), or L18-MDP (1 μg/mL) for 72 hours, and then pulsed ^3H-thymidine for 16 hours. Proliferation was determined by ^3H incorporation and results are expressed as cpm±SEM. Baseline alloreactivity is indicated by the dotted line; *p<0.05 compared with media alone. […] Results are representative of three independent experiments.
T cell proliferation assay: DCs were generated from bone marrow as previously described. (Yang, Y. (2004) Nat. Immunol. 5:508-15). CD3^+ T cells were isolated from B6 mice using a CD3 negative selection magnetic bead kit (Invitrogen, Carlsbad, United States). Proliferation assays were performed as previously described. (Brennan, T. V. et al. (2008) Transplantation 85:247-55).
Purified T cells from C57BL/6 mice were stimulated with bone marrow-derived DCs from BALB/c mice and their proliferation was measured by the incorporation of ^3H-thymidine. DAMPs tested included proteins—fibronectin (FN), fibrinogen (Fbn), heat shock protein 70 (HSP70), and high-mobility group protein B1 (HMGB1); and glucosaminoglycans—heparan sulfate (HS) and hyaluronan (HA). For comparison, two well-described PAMPs, lipopolysaccharide (LPS) and a synthetic tripalmitoylated lipopeptide (Pam3CSK4) that are ligands of the TLR4 homodimer and the TLR1/2 heterodimer, respectively, were tested. As nucleotide-binding domain, leucine-rich repeat containing receptors (NLRB) are another family of innate immune receptors, ligands of NLR1 (C12-iE-DAP) and NLR2 (L18-MDP) were further tested.
Next, to investigate whether HS enhanced proliferation of allogeneic T cells was due to the stimulation of TLRs on DCs or T cells, because MyD88 is a common adaptor protein involved in the signal transduction of all TLRs with the exception of TLR3^9, HS was tested against DCs or T cells that were deficient for MyD88. For this purpose, T cells from WT or MyD88^−/− C57BL/6 mice were stimulated with DCs from WT or MyD88^−/− BALB/c mice in an allogeneic proliferation assay in the presence of HS, LPS, Pam3CSK4, or media alone.
HS has been shown as a TLR4 ligand, (Johnson, G. B. et al., (2002) J. Immunol. 168:5233-39; Johnson, G. B., Brunn, G. J. & Platt, J. L. (2004) J. Immunol. 172:20-24). To determine whether the absence of TLR4 expression on stimulating DCs would reduce HS-induced alloreactive T cell proliferation equivalent to MyD88 deficiency, purified T cells from C57BL/6 mice were co-cultured with irradiated WT, TLR4^−/−, and MyD88^−/− BALB/c DCs and proliferation was measured by the incorporation of ^3H-thymidine.
Cytokine analysis: Cell culture supernatants were obtained from DC cultures or T cell proliferation assays and assayed for IL-6, IL-12 and IFN-γ by ELISA (BD Biosciences) according to the manufacturer's standard protocols. HEK 293 supernatants were tested for human IL-8 by ELISA (BioLegend, San Diego, United States).
Allogenic heart transplants were performed between C57BL/6 donors and (BALB/c x DBA.1)F1 recipients. Serum HS was measured by ELISA Immunohistologic staining for HS and CD3 was performed on heart tx tissue. Bone marrow derived dendritic cells (DCs) and purified T cells from WT-, MyD88- or TLR4-deficient mice were used in MLR assays to test for proliferation and cytokine production in response to HS. CD40 and CD80 expression on stimulated DCs was measured by FACS. T cell proliferation was determined by ^3H-thymidine incorporation and CFSE dye dilution assay. HEK293 NF-kB-luciferase reporter cell lines stably expressing CD14, MD2, and TLR4 or TLR2 were used in assays of HS activity.

In assay [2] the test system is BALB/c DCs. The assay is described as follows: DC maturation: surface expression of CD40 and CD80 by FACS. The assay is classed as cell-based, mouse. Conditions: 24 h; HS 100 μg/mL, Pam3CSK4 2 μg/mL. Here is the method:
FIG. 3A is a graph showing WT, TLR4^−/−, or MyD88^−/− BALB/c DCs (2×10^5/well) were stimulated with LPS (100 ng/mL), HS (100 μg/mL), or Pam3CSK4 (2 μg/mL), or left unstimulated (media) for 24 hours, and measured for surface expression of co-stimulatory molecules CD40 and CD80 by FACS analysis. FIGS. 3B and 3C are graphs showing WT, MyD88^−/−, and TLR4^−/− BALB/c cultured DCs were co-cultured with media alone, LPS, HS, or Pam3CSK4 as in (A) and culture supernatants were tested for IL-6 (B) and IL-12 (C) by ELISA. Data are representative of three independent experiments; *p<0.05 compared with media alone.
To investigate how activation of DCs by HS promoted the alloreactive T cell response, an as DC maturation and production of pro-inflammatory cytokines are key initial events in triggering adaptive immune responses, the ability of HS to upregulate DC expression of costimulatory molecules, CD40 and CD80, and pro-inflammatory cytokines, IL-6 and IL-12 was tested.
Antibodies and flow cytometry: Anti-CD40 (HM40-3), anti-CD80 (16-10A1), anti-Thy1.1 (OX-7), anti-Ly5.1 (A20) anti-IFN-γ (XMG1.2), rat IgG1 isotype (R3-34), and the BrdU Flow Kit (FITC-labeled) were from BD Biosciences (San Jose, Calif., USA). Intracellular IFN-γ staining was performed as previously described. (Brennan, T. V. et al. (2008) Transplantation 85:247-55). For in vivo BrdU labeling, mice were injected with 50 μg BrdU/gm i.p. 1 hour prior to analysis. Collection of flow cytometric data was acquired using a FACSCanto (BD Biosciences), and events were analyzed using FloJo software (Tree Star, Inc., Ashland, United States).

[3] abbreviates: TLR4−/− BALB/c DCs as stimulators.

Turning to heparan sulfate [HS], in assay [1], the “IFNg production in MLR assays” value was “increased”. For the same substance, the “alloreactive T cell proliferation with MyD88−/− DCs as stimulators” value in assay [1] (MyD88−/− BALB/c DCs) is listed as “abolished the enhanced proliferation”. Also, in assay [1] (setting [3]), the “IFN-γ production with TLR4−/− DCs” value is recorded as “not able to increase” and the “proliferation of allogeneic T cells above baseline with TLR4−/− DCs” value is “not able to increase”. Also, the “alloreactive T cell proliferation compared to media alone” value in assay [1] (WT BALB/c DCs + C57BL/6 T cells, 72 h then 3H-thymidine 16 h, HS 100 μg/mL, HSP70 5 μg/mL, C12-iE-DAP 1 μg/mL, L18-MDP 1 μg/mL) was “significantly increased”. Further, the “upregulation of CD40 and CD80 on WT DCs” value in assay [2] is “upregulation”.
